What was measured:
[1] = test system: NIH3T3 cells; assay: [Ca2+]i measurement with fura-2; format: cell-based, mouse; conditions: NIH 3T3; 25 μM
Experimental: (§1) Neutrophils and HL60, and differentiated HL60, U937, NIH3T3, and PC12 cells were loaded with fura-2 and then stimulated with 25 μM of m-3M3FBS. Changes in the 340 nm/380 nm excitation ratio were monitored, and converted to [Ca^2+]i levels. Data are presented as means ±S. E. M. of three independent experiments.
U937 (human histiocytic lymphoma cells), HL60 (human promyelocytic leukemia cells), NIH3T3 (NIH Swiss mouse embryo fibroblasts), and PC12 (rat adrenal pheochromocytoma cells) were obtained from the American Type Culture Collection (Rockville, Md.) and HeLa (human adenocarcinoma cells) Tet-off cells were purchased from Clontech (Palo Alto, Calif., U.S.A.) and maintained as recommended. The cells were maintained at about 1×10^6 cells/ml under standard incubator conditions (humidified atmosphere, 95% air, 5% CO2, 37° C.). […]
Freshly prepared human neutrophils were incubated in serum free RPMI 1640 medium with 3 μM of fura-2/AM at 37° C. for 30 min with continuous stirring. […] Changes in the fluorescence ratio were measured at an emission wavelength of 500 nm for dual excitation wavelengths at 340 nm and 380 nm. The calibration of the fluorescence ratio versus [Ca^2+]i was performed as described by Grynkiewicz (Grynkiewicz et al., 1985).

[2] = test system: HL60 cells; assay: [Ca2+]i measurement with fura-2; format: cell-based, human; conditions: 25 μM
Experimental: as §1
(§2) U937 (human histiocytic lymphoma cells), HL60 (human promyelocytic leukemia cells), NIH3T3 (NIH Swiss mouse embryo fibroblasts), and PC12 (rat adrenal pheochromocytoma cells) were obtained from the American Type Culture Collection (Rockville, Md.) and HeLa (human adenocarcinoma cells) Tet-off cells were purchased from Clontech (Palo Alto, Calif., U.S.A.) and maintained as recommended. The cells were maintained at about 1×10^6 cells/ml under standard incubator conditions (humidified atmosphere, 95% air, 5% CO2, 37° C.). HL60 cells were induced to differentiate into the granulocyte phenotype by adding dimethylsulfoxide (DMSO) (final concentration 1.25% v/v) for 5 days, as has been described before (Ithoh et al., 1998).
(§3) Freshly prepared human neutrophils were incubated in serum free RPMI 1640 medium with 3 μM of fura-2/AM at 37° C. for 30 min with continuous stirring. After washing with serum free RPMI 1640 medium, the cells were suspended in serum free RPMI containing 250 μM of sulfinpyrazone to prevent dye leakage. About 2×10^6 cells were suspended in Ca^2+ free Locke's solution (158.4 mM NaCl, 5.6 mM KCl, 1.2 mM MgCl2, 5 mM HEPES pH 7.3, 10 mM glucose, and 0.2 mM EGTA) for each measurement. Changes in the fluorescence ratio were measured at an emission wavelength of 500 nm for dual excitation wavelengths at 340 nm and 380 nm. The calibration of the fluorescence ratio versus [Ca^2+]i was performed as described by Grynkiewicz (Grynkiewicz et al., 1985).

[3] = test system: differentiated HL60 cells; assay: [Ca2+]i measurement with fura-2; format: cell-based, human; conditions: 25 μM
Experimental: as §1, §2, §3

[4] = test system: U937 cells; assay: [Ca2+]i measurement with fura-2; format: cell-based, human; conditions: 25 μM
Experimental: as §1, §2, §3

[5] = test system: PTX-sensitive Gi-proteins; assay: PTX sensitivity of [Ca2+]i increase in neutrophils; format: cell-based, human; conditions: PTX 1 μg/ml for 90 min; m-3M3FBS 25 μM, fMLF 1 μM
Experimental: Isolated neutrophils were preincubated with PTX (1 μg/ml) or vehicle for 90 min at 37° C. and stimulated with m-3M3FBS, FMLF, or ATP at concentrations of 25, 1, and 500 μM, respectively. Changes in the excitation ratios at 340 nm/380 nm were monitored. Data are presented as means ±S. E. M. of two independent experiments (A). cAMP levels were determined by a radio receptor assay. Prepared cells were treated with m-3M3FBS (25 μM) or histamine (100 μM) and then lysed with Tris-EDTA. After removing the supernatant, [ 3H] cAMP and protein were added, and the amount of [^3H] cAMP-protein complex was determined. The amount of unlabeled cAMP (in the sample) was then calculated by measuring the protein-bound radioactivity. Data are presented as means ±S. E. M. of two independent experiments (B). RGS2-GFP inducible HeLa cells were cultured for 48 h in the absence or in the presence of tetracycline, and the induction of RGS2-GFP was confirmed by Western blot analysis using anti-GFP antibody (C). RGS2-GFP inducible HeLa cells were cultured for 48 h in the absence or in the presence of tetracycline and loaded with fura-2. Cells were treated with histamine (100 μM) or m-3M3FBS (25 μM), and changes in the 340 nm/380 nm ratios were monitored and converted to [Ca^2+]i values. The results shown are representative of three independent experiments (C).
as §3

[6] = test system: human neutrophils; assay: Cross-desensitization of [Ca2+]i responses in neutrophils; format: cell-based; conditions: extracellular calcium free
Experimental: FIG. 5 describes cross-desensitization experiments. Fura-2-loaded neutrophils were pretreated with m-3M3FBS (25 μM) and then rechallenged with ATP (500 μM) or WKYMVm (1 μM) in this or in the reverse order in the extracellular calcium free condition. Changes in the 340 nm/380 nm excitation ratio were monitored, and converted to [Ca^2+]i levels. The results shown are representative of three independent experiments.
as §3

[7] = test system: PLC; assay: In vitro PLC activity in the presence or absence of Ca2+; format: biochemical; conditions: data not shown
Text: Moreover, the primary structures of the several different isoforms of PLC are known (Rhee, 2001; Noh et al., 1995). PLC β and PLC δ have an NH2-terminal PH domain, an EF-hand, X and Y domains, known to form the catalytic core, and a COOH-terminal C2 domain. In addition, PLC β has a long C-terminal tail beyond the C2 domain (Rhee, 2001; Noh et al., 1995; Rhee and Bae, 1997). PLC γ has additional three SH domains between the X and Y domains, but no long COOH-terminal tail (Rhee, 2001; Noh et al., 1995; Rhee and Bae, 1997). […] For the proper activation of PLC enzyme, calcium has been regarded as an essential requirement (Rhee and Bae, 1997). Calcium is required not only for the functioning of C2 domain that mediates the Ca^2+-dependent binding to lipid vesicles but also for the catalytic activity of the enzyme (Rhee and Bae, 1997). […] An investigation of the effect of m-3M3FBS on the lipase activity of an X and Y domain mixture will be required to confirm the possible action of m-3M3FBS on the two catalytic cores. Since m-3M3FBS is the first compound that directly stimulates PLC activity, the elucidation of the action mechanism of the compound will give useful information on the basic molecular mechanisms of the activation of PLC enzymes.

Compound: Cc1cc(C)c(S(=O)(=O)Nc2cccc(C(F)(F)F)c2)c(C)c1 [m-3M3FBS, 2,4,6-Trimethyl-N-(meta 3-trifluoromethyl-phenyl)-benzenesulfonamide]
- calcium increase [1]: induced calcium increase
- calcium increase [2]: induced calcium increase
- calcium increase [3]: induced calcium increase
- calcium increase [4]: induced calcium increase
- effect of PTX preincubation on the induced calcium increase [5]: insensitive to PTX
- [Ca2+]i response when given after ATP or WKYMVm ([6]; 25 μM after ATP 500 μM or WKYMVm 1 μM): elicited still further [Ca^2+]i increases
- effect of prestimulation on cellular response to ATP ([6]; m-3M3FBS 25 μM, then ATP 500 μM): significantly reduced
- effect of prestimulation on cellular response to WKYMVm ([6]; m-3M3FBS 25 μM, then WKYMVm 1 μM): significantly reduced
- in vitro PLC activity [7]: stimulated

— US20040220268A1, “Compound that directly stimulates phospholipase C activity” (priority 2003, published 2004)
